Tests used:
[1] = system: ApoE-knockout mice; assay: Long-term feeding experiment with ApoE-knockout mice; type: in vivo; conditions: ApoE-knockout mice on fat-containing Western diet; 5 ppm with the feed; after 13 months; over half of the untreated mice were dead
Method: Long-Term Feeding Experiment with ApoE-Knockout Mice
ApoE-knockout mice received a fat-containing diet (0.15% cholesterol, 21.4% crude fat, 19% casein; “Western diet”). The compound of Example 48 was administered in a proportion of 5 ppm with the feed to the treated group, while the control group received the food without active ingredient. After 13 months, over half of the untreated mice were dead, whereas 23 of 25 animals in the treated group were still alive.
It is known from the literature that the ApoE-knockout mice used die from myocardial infarctions and manifestations of neuronal degeneration [Caligiuri, G., et al., Proc. Natl. Acad. Sci. USA, 96, 6920-6924 (1999); Walker, L. C. Am. J. Pathol., 151, (5), 1371-1377 81997)].

[2] = system: atherosclerotic plaques; conditions: mouse test; Zaiss et al., Circulation 100 (18, Suppl. I):258 Abstr. 1343 (1999); cited from earlier work

Row | Compound | animals in the treated group still alive [1] | formation of atherosclerotic plaques [2]
1 | Cc1cc(C)c2c3ccccc3n(Cc3ccc([C@@H](C(=O)N[C@@H](CO)c4ccccc4)C4CCCC4)cc3)c2n1 [Example 48, (2S)-2-Cyclopentyl-2-[4-(2,4-dimethyl-pyrido[2,3-b]indol-9-ylmethyl)-phenyl]-N-(2-(1R)-hydroxy-1-phenyl-ethyl)-acetamide] | 23 of 25 | 
2 | implitapide |  | prevents the formation of atherosclerotic plaques
